According to patent US20150374676A1, “HELICASE-PRIMASE INHIBITORS FOR USE IN A METHOD OF TREATING ALZHEIMER'S DISEASE” (AICURIS GMBH & CO. KG, priority 2013, published 2015):
Read-outs that look alike come from different tables or passages of the source.

Experiment: Single-dose escalation pharmacokinetics in volunteers
Format: in vivo, human
Settings: for AUC(0-t): read-out: AUC0-24h
Description: Exposure of the free base form of N-[5-(aminosulfonyl)-4-methyl-1,3-thiazol-2-yl]-N-methyl-2-[4-(2-pyridinyl)-phenyl]acetamide to the human body may be measured by high pressure liquid chromatography (HPLC) by looking at different pharmacokinetic parameters in suitable bodily fluids such as for instance blood plasma and urine, the most common parameters being the Cmax, the so-called area under the curve (AUC), and the terminal half-life (t1/2Z). Hereto, the person skilled in the art understands that said parameters are determined by using adequate bioanalytical methods with adequate sensitivity, specificity, ruggedness, stability and repeatability, as for instance a qualified liquid chromatography triple quad mass spectrometry based method coupled with a suitable extraction method for the separation of the analyte from, e.g. the blood plasma.
Therefore, pharmacokinetic studies in human subjects were undertaken following both single and multiple dose administrations of the crystalline mono mesylate monohydrate salt of N-[5-(aminosulfonyl)-4-methyl-1,3-thiazol-2-yl]-N-methyl-2-[4-(2-pyridinyl)phenyl]acetamide, wherein the particle size distribution is preferably defined by d(0.1) from 2 to 100 μm, d(0.5) from 30 to 210 μm and d(0.9) from 70 to 400 μm with a specific surface area of the particles less than 1.0 m^2/g, and more preferably defined by d(0.1) from 10 to 75 μm, d(0.5) from 100 to 175 μm, d(0.9) from 200 to 350 μm with a specific surface area of the particles less than 0.3 m^2/g.
Single oral doses of the crystalline mono mesylate monohydrate salt of N-[5-(aminosulfonyl)-4methyl1,3thiazol-2-yl]-N-methyl-2-[4-(2-pyridinyl)phenyl]acetamide using the formulations in accordance with example a and Table a, were administered to six volunteers per dose step. The overall shape of the plasma concentrations vs. time profiles were similar across all doses applied (see FIG. 4 and FIG. 6).
Table b: Pharmacokinetic parameters after ascending single oral doses of crystalline mono mesylate monohydrate salt of N-[5-(aminosulfonyl)-4-methyl-1,3-thiazol-2-yl]-N-methyl-2-[4-(2-pyridinyl)phenyl]acetamide in the formulations in accordance with table a wherein the particle size distribution is preferably defined by d(0.1) from 2 to 100 μm, d(0.5) from 30 to 210 μm and d(0.9) from 70 to 400 μm with a specific surface area of the particles less than 1.0 m^2/g, and more preferably defined by d(0.1) from 10 to 75 μm, d(0.5) from 100 to 175 μm, d(0.9) from 200 to 350 μm with a specific surface area of the particles less than 0.3 m^2/g.
AUC0-∞: Area under the analyte vs. time concentration from time of administration up to infinity, calculated as
wherein AUC0-last is defined as the area under the analyte vs. time concentration up to time of the last qualifiable concentration, calculated by linear up/log down summation and Clast is defined as last quantifiable observed analyte concentration. λz is the apparent terminal elimination rate constant, determined by linear regression of terminal points of In-linear analyte concentration-time curve.
Cmax is the maximal observed analyte concentration and tmax is the time to reach Cmax;
t1/2z is defined as the apparent terminal elimination half-life, calculated as
MRT: Mean Residence Time; calculated AUMC divided by AUC, wherein AUMC is the area under the first moment of the concentration-time curve from zero up to ∞ with extrapolation of the terminal phase and AUC is the area under the concentration-time curve from zero up to ∞ with extrapolation of the terminal phase.
CL/F refers to the clearance after oral administration of a drug and Ae refers to the amount of drug excreted in the urine.

SMILES: CS(=O)(=O)O.Cc1nc(N(C)C(=O)Cc2ccc(-c3ccccn3)cc2)sc1S(N)(=O)=O [mono mesylate monohydrate salt, N-[5-(aminosulfonyl)-4-methyl-1,3-thiazol-2-yl]-N-methyl-2-[4-(2-pyridinyl)-phenyl]acetamide mono methanesulfonic acid monohydrate]
- t1/2z on average (40 mg dosage as free base equivalent, single oral dose): 72 ± 3 h
- t1/2z on average (80 mg dosage as free base equivalent, single oral dose): 74 ± 5 h
- t1/2z on average (160 mg dosage as free base equivalent, single oral dose): 63 ± 6 h
- t1/2z on average (240 mg dosage as free base equivalent, single oral dose): 64 ± 5 h
- t1/2z on average (320 mg dosage as free base equivalent, single oral dose): 57 ± 3 h
- t1/2z on average (400 mg dosage as free base equivalent, single oral dose): 57 ± 4 h
- t1/2z on average (480 mg dosage as free base equivalent, single oral dose): 53 ± 4 h
- MRT (female, plasma, single oral dose 80 mg free base equivalent, females, human, mean, n = 6): 77 h
- Tmax (female, plasma, single oral dose 80 mg free base equivalent, females, human, median, n = 6, read-out: tmax): 4 h
- AUC(0-inf) (female, single oral dose 80 mg free base equivalent, females, human, mean, n = 6, free base in plasma): 96.2 µg·h/mL
- Cmax (female, single oral dose 80 mg free base equivalent, females, human, mean, n = 6, free base in plasma, read-out: Cmax): 2 µg/mL
- AUC(0-t) (human, plasma, 80 mg dosage as free base equivalent, single oral dose): 21.9 ± 2.06 µg·h/mL
- Cmax (human, plasma, 80 mg dosage as free base equivalent, single oral dose, read-out: mean maximum blood plasma concentration (mean Cmax) of the free base): 1.31 ± 0.125 µg/mL
- AUC(0-t) (human, plasma, 160 mg dosage as free base equivalent, single oral dose): 40.5 ± 16.7 µg·h/mL
- Cmax (human, plasma, 160 mg dosage as free base equivalent, single oral dose, read-out: mean maximum blood plasma concentration (mean Cmax) of the free base): 2.61 ± 1.34 µg/mL
- AUC(0-t) (human, plasma, 240 mg dosage as free base equivalent, single oral dose): 59.6 ± 12.8 µg·h/mL
- Cmax (human, plasma, 240 mg dosage as free base equivalent, single oral dose, read-out: mean maximum blood plasma concentration (mean Cmax) of the free base): 3.6 ± 0.752 µg/mL
- AUC(0-t) (human, plasma, 320 mg dosage as free base equivalent, single oral dose): 76.2 ± 27.6 µg·h/mL
- Cmax (human, plasma, 320 mg dosage as free base equivalent, single oral dose, read-out: mean maximum blood plasma concentration (mean Cmax) of the free base): 4.65 ± 1.81 µg/mL
- AUC(0-t) (human, plasma, 400 mg dosage as free base equivalent, single oral dose): 105 ± 25.7 µg·h/mL
- Cmax (human, plasma, 400 mg dosage as free base equivalent, single oral dose, read-out: mean maximum blood plasma concentration (mean Cmax) of the free base): 6.93 ± 1.66 µg/mL
- AUC(0-t) (human, plasma, 480 mg dosage as free base equivalent, single oral dose): 113 ± 34.3 µg·h/mL
- Cmax (human, plasma, 480 mg dosage as free base equivalent, single oral dose, read-out: mean maximum blood plasma concentration (mean Cmax) of the free base): 6.92 ± 2.19 µg/mL
- AUC(0-t) (male, human, plasma, 40 mg dosage as free base equivalent, single oral dose): 10.1 ± 3.11 µg·h/mL
- Cmax (male, human, plasma, 40 mg dosage as free base equivalent, single oral dose, read-out: mean maximum blood plasma concentration (mean Cmax) of the free base): 0.608 ± 0.184 µg/mL
- MRT (male, plasma, single oral dose 80 mg free base equivalent, males, human, mean, n = 6): 94 h
- Tmax (male, plasma, single oral dose 80 mg free base equivalent, males, human, median, n = 6, read-out: tmax): 2.5 h
- AUC(0-inf) (male, single oral dose 80 mg free base equivalent, males, human, mean, n = 6, free base in plasma): 87.2 µg·h/mL
- Cmax (male, single oral dose 80 mg free base equivalent, males, human, mean, n = 6, free base in plasma, read-out: Cmax): 1.31 µg/mL
- MRT (plasma, single oral dose 5 mg free base equivalent, human, mean, n = 6): 117 h
- Tmax (plasma, single oral dose 5 mg free base equivalent, human, median, n = 6, read-out: tmax): 4 h
- MRT (plasma, single oral dose 10 mg free base equivalent, human, mean, n = 6): 116 h
- Tmax (plasma, single oral dose 10 mg free base equivalent, human, median, n = 6, read-out: tmax): 1.5 h
- MRT (plasma, single oral dose 20 mg free base equivalent, human, mean, n = 6): 105 h
- Tmax (plasma, single oral dose 20 mg free base equivalent, human, median, n = 6, read-out: tmax): 2.77 h
- MRT (plasma, single oral dose 40 mg free base equivalent, human, mean, n = 6): 94 h
- Tmax (plasma, single oral dose 40 mg free base equivalent, human, median, n = 6, read-out: tmax): 3.5 h
- MRT (plasma, single oral dose 160 mg free base equivalent, human, mean, n = 6): 83 h
- Tmax (plasma, single oral dose 160 mg free base equivalent, human, median, n = 6, read-out: tmax): 3.5 h
- MRT (plasma, single oral dose 240 mg free base equivalent, human, mean, n = 6): 82 h
- Tmax (plasma, single oral dose 240 mg free base equivalent, human, median, n = 6, read-out: tmax): 4 h
- MRT (plasma, single oral dose 320 mg free base equivalent, human, mean, n = 6): 70 h
- Tmax (plasma, single oral dose 320 mg free base equivalent, human, median, n = 6, read-out: tmax): 2.25 h
- MRT (plasma, single oral dose 400 mg free base equivalent, human, mean, n = 6): 64 h
- Tmax (plasma, single oral dose 400 mg free base equivalent, human, median, n = 6, read-out: tmax): 4.25 h
- MRT (plasma, single oral dose 480 mg free base equivalent, human, mean, n = 6): 72 h
- Tmax (plasma, single oral dose 480 mg free base equivalent, human, median, n = 6, read-out: tmax): 3.25 h
- MRT (plasma, single oral dose 600 mg free base equivalent, human, mean, n = 6): 65 h
- Tmax (plasma, single oral dose 600 mg free base equivalent, human, median, n = 6, read-out: tmax): 4.25 h
- Tmax (plasma, single oral doses 5-600 mg free base equivalent, human, no obvious relation to dose, read-out: median tmax, range over doses): 1.5 to 4.25 h
- half-life (plasma, single oral doses 5-600 mg free base equivalent, human, read-out: mean terminal elimination half-life (t1/2z), range over doses): 52 to 85 h
- gender-related difference in exposure (single dose of 80 mg as free base equivalent, after normalization to body weight): No clinical relevant gender-related difference in exposure
- exposure as shown by AUC0-∞ at the highest dose (single dose of 600 mg as free base equivalent, human): did not cause any further rise of exposure
- dose dependence of maximum plasma concentrations (single doses from 5 mg to 400 mg as free base equivalent, human): linearly related to doses
- dose dependence of AUC0-∞ (single doses from 5 mg to 480 mg as free base equivalent, human): dose-proportional increase
